Where “and” joins values, the source holds several entries; their conditions need not be identical. Equal values may be shown once.
What was measured:
[1] = test system: Pseudomonas aeruginosa PA01; assay: Inhibition of biofilm formation and growth, 96-well plates, crystal violet; assay type: cell-based; conditions: for inhibited biofilm formation of P. aeruginosa PAO1: approximately 10 ug/ml, compared to the controls; for inhibitory effect on the growth of P. aeruginosa PA01: compared to controls
Experimental: An overnight culture of P. aeruginosa PA01 in LB+1% citrate was prepared. It was incubated at 37° C. shaker for 24 hours. A 1:20 dilution of the overnight culture was prepared. Test compounds are diluted appropriately with a volume of ethanol followed by shaking for approximately 5 minutes and then diluted with an appropriate volume of water.
Replicate 96-well plates are prepared, preferably two to four replicates, with appropriately diluted overnight culture and test compound in each well. Preferably, test compounds are prepared at 10 to 30 micrograms per milliliter. On each 96-well plate controls are appropriately prepared with at least one set of controls consisting of overnight culture and ethanol/water diluent and another set of controls consisting of growth media and ethanol/water diluent. Plates are covered with foil at room temperature and shaken for approximately 24 hours.
After shaking absorbance of the wells of the plates are determined, preferably at 630 nanometers. Liquid is than aspirated out of the wells and each well is filled with diluted crystal violet, preferably approximately 250 microliters of a 1:4 dilution, and allowed to stand for approximately 10 minutes. Each well of the plate is washed, preferably four times, with PBS with approximately one minute between each wash. After the final wash is aspirated out, the plate may be turned over onto paper towels to dump out excess PBS. 95% ethanol is added to each well, preferably 250 microliters. Absorbance of each well of a plate is determined, preferably at 540 nm. Preferably slight shaking is performed during the absorbance reading for approximately 5 minutes. Each well of the plate is than diluted […] with ethanol in a separate plate, preferably 145 ul of 95% ethanol and 5 uL from the original plate, and absorbance is determined. Preferably, slight shaking for approximately 3 minutes is performed.
Biofilm inhibition in each well is determined by subtracting the absorbance of the wells with test compounds from wells with controls containing overnight culture subtracting out controls with only media. A typical positive result of biofilm inhibition confirmed with replicates would be 30 percent to 80 percent less biofilm in the wells with test compound compared to the wells with controls of overnight culture.

[2] = test system: E. coli clinical strain UT189; assay: Inhibition of biofilm formation, crystal violet, 96 well plates; assay type: cell-based; conditions: Escherichia coli; 20 ug/ml; read-out: inhibited biofilm formation of the UT189 strain
Experimental: Biofilm inhibition experiments were conducted using an assay adapted from the reported protocol described in Pratt and Kolter, 1998, Molecular Microbiology, 30: 285-293; Li et al., 2001, J. Bacteriol., 183: 897-908. E. coli clinical strain UT189 was grown in LB in 96 well plates at room temperature for one or two days without shaking. E. coli laboratory strain JM109 was grown in LB plus 0.2% glucose in 96 well plates at room temperature for one day without shaking. To quantify the biofilm mass, the suspension culture was poured out and the biofilm was washed three times with water. The biofilm was stained with 0.1% crystal violet for 20 minutes. The plates were then washed three times with water. OD reading at 540 nm was measured to quantify the biofilm mass at the bottom of the wells. Then 95% ethanol was added to dissolve the dye at the bottom and on the wall and the OD reading at 540 nm was measured to quantify the total biofilm mass. To study the overall effect of the compounds (3.6 mg/mL in 100% ethanol as stock solution), it was added with the inoculation and a time course of biofilm mass was measured. Appropriate amounts of 100% ethanol were added to each sample to eliminate the effect of solvent. Each condition had 3-4 replicates on each plate and was performed over multiple days.

[3] = test system: P. aeruginosa strain PAO1; assay: Rotating disk reactor (RDR) biofilm test with and without tobramycin, culturable bacteria; assay type: cell-based, Pseudomonas aeruginosa
Experimental: Biofilm formation of P. aeruginosa was evaluated using a standardized biofilm method with a rotating disk reactor (RDR). This method provides a model resembling the formation of biofilms in cystic fibrosis patients. The rotating disk reactor consists of a one-liter glass beaker fitted with a drain spout. The bottom of the vessel contains a magnetically driven rotor with six 1.27 cm diameter coupons constructed from polystyrene. The rotor consists of a star-head magnetic stir bar upon which a disk was affixed to hold the coupons. The vessel with the stir bar was placed on a stir plate and rotated to provide fluid shear. A nutrient solution (AB Trace Medium with 0.3 mM glucose, see Table 3 below for composition) was added through a stopper in the top of the reactor at a flow rate of 5 ml/min. The reactor volume was approximately 180 ml and varied slightly between reactors depending on the placement of the drain spout and the rotational speed of the rotor. At a volume of 180 ml, the residence time of the reactors was 36 minutes. The reactors were operated at room temperature (c.a. 26° C.).
For each test, two RDRs were operated in parallel with one receiving test compound and the other serving as an untreated control. The RDRs were sterilized by autoclave, then filled with sterile medium and inoculated with P. aeruginosa strain PAO1. The reactors were then incubated at room temperature in batch mode (no medium flow) for a period of 24 hours, after which the flow was initiated for a further 24 hour incubation. Test compounds were dissolved in 10 ml ethanol to achieve a concentration of 1.8 mg/ml. After the 48 hours of biofilm development described above, the 10 ml of ethanol containing the test compounds were added to the reactor to achieve a final concentration of approximately 50, 100, or 200 μg/ml. Control reactors received 10 ml of ethanol. The reactors were then incubated for an additional 24 hours in batch (no flow) mode. After this incubation period, the six coupons were removed from each reactor and placed in 12-well polystyrene tissue culture plates with wells containing either 2 ml of a 100 μg/ml tobramycin solution or 2 ml of phosphate-buffered saline (PBS). These plates were incubated at room temperature for two hours. The coupons were then rinsed by three transfers to plates containing 2 ml of fresh PBS. For each two RDR reactors run in parallel, four sets of three coupons were obtained: one set with no test compound treatment and no tobramycin treatment, one set with no test compound treatment and tobramycin treatment, one set treated with a test compound treatment and no tobramycin treatment, and one set treated with a test compound treatment and tobramycin. After rinsing, one coupon of each set of three was stained with a LIVE/DEAD® BacLight™ Bacterial Viability Kit (Molecular Probes, Eugene Oreg.) and imaged using epifluorescent microscopy. The remaining two coupons were placed in 10 ml of PBS and sonicated for five minutes to remove and disperse biofilm cells. The resulting bacterial suspensions were then serially diluted in PBS and plated on tryptic soy agar plates for enumeration of culturable bacteria. The plates were incubated for 24 hours at 37° C. before colony forming units (CFU) were determined.
The results are averages from experiments performed on three separate days for each test compound. The values reported are as loglo CFU.

[4] = test system: E. coli clinical strain UT189 against bladder epithelial cells; assay: Binding to and invasion of bladder epithelial cells by E. coli; assay type: cell-based
Experimental: The effect of test compounds on bacterial invasion of E. coli clinical strain UT189 was studied as described in Elsinghorst, et al. 1994, Methods Enzymol, 236:405-420; and Martinez et al., 2000, EMBO J., 19:2803-2812. Epithelial bladder cells were grown in plates. Asiatic acid, corosolic acid, or ursolic acid were added at concentrations of 10 μg/ml, 20 μg/ml, or 40 μg/ml to bacteria and epithelial cells for approximately 5, 15, 30, or 60 minutes with approximately 10^7 CFU of E. coli. Binding was assessed at time zero and invasion was assessed at approximately 5, 15, 30, or 60 minutes from completing the mixture of compound, bacteria, and epithelial cells. As a control ethanol was added to cells to a final concentration of 0.1%. The effect of bacterial viability and bacterial adherence during the infection period was evaluated according to the methods described in Martinez et al., 2000, EMBO J., 19:2803-2812.

[5] = test system: E. coli UT189[pCOMGFP]; assay: Biofilm pods (IBCs) in bladders of infected mice, intravesical compound, confocal microscopy; assay type: in vivo, Escherichia coli; conditions: vs controls
Experimental: The procedures in this example has been previously reported by Justice, S. et al. Differentiation and development pathways of uropathogenic Escherichia coli in urinary tract pathogenesis. PNAS, 2004, 101(5), p. 1333-1338. Briefly, E. coli UT189[pCOMGFP] was prepared after retrieval from frozen stocks by inoculating appropriately in LB medium statically for approximately 20 hours. Cells were harvested and suspended in 1 ml of PBS. Cells were diluted appropriately to achieve approximately a 10^8 CFU or 10^7 CFU input into C3H/HeN mice (2 mice per group).
Mice were deprived of water for approximately two hours. In experiment 1, all mice were anesthetized with 0.15 cc ketamine cocktail. In experiment 2, all mice were anesthetized with isofluorane. In experiment 1, urine was dispelled from the bladders and approximately 40 μg/ml of test compound or an appropriate amount of ethanol as control was introduced into the bladders via catheterization of the urethra using a tubing coated tuberculin syringe. 30 minutes was allowed to elapse. In experiment 2, bladders were not pre-incubated with test compounds. Bladders were then expelled and an inoculum of 10^8 CFU (Experiment 1) or 10^7 CFU (Experiment 2) of E. coli containing 40 μg/ml of test compound or equivalent amount of ethanol as controls were introduced into the bladders as indicated above.
In experiment 1 five hours elapsed and in experiment 2 six hours elapsed, and then mice were anesthetized and sacrificed appropriately. The bladders were removed, bisected, stretched, and fixed in 3% paraformaldehyde for 1 hour at room temperature. Bladders were then permeabilized in 0.01% Triton/PBS for 10 minutes and counter stained with TOPRO3 (Molecular Probes) for 10 minutes for visualization by confocal microscopy. Bladders were mounted on Prolong antifade (Molecular Probes).

[6] = test system: methicillin-resistant Staphylococcus aureus; conditions: cited from earlier work

3-hydroxy-12,20(30) ursadienoic acid [3-hydroxy-12, 20(30) ursadienoic acid]
inhibited biofilm formation of P. aeruginosa PAO1 [1]: about 40% | inhibitory effect on the growth of P. aeruginosa PA01 [1]: no inhibitory effect

CC(=O)OC1CCC2(C)C(CCC3(C)C2CC=C2[C@@H]4CC(C)(C)CCC4(C(=O)O)CCC23C)C1(C)C (some centres unmarked) [3-acetyl oleanolic acid]
inhibited biofilm formation of P. aeruginosa PAO1 [1]: ~50% | inhibitory effect on the growth of P. aeruginosa PA01 [1]: no inhibitory effect

C[C@@H]1CC[C@]2(C(=O)O)CCC3(C)C(=CCC4C5(C)C[C@@H](O)[C@H](O)C(C)(C)C5CCC43C)C2[C@H]1C (some centres unmarked) [Corosolic acid]
inhibition at 20 µg/mL [2]: ~85% | CFU, Test Compound ([3]; test compound 100 μg/ml 24 h, no tobramycin, average of three days): 7.8 loglo CFU | CFU, Tobramycin and Test Compound ([3]; test compound 100 μg/ml 24 h, then tobramycin 100 μg/ml 2 h, average of three days): 5.3 loglo CFU | reduced invasion of E. coli into bladder epithelial cells ([4]; 20 μg/ml, 60 minutes, n=4): 65% | reduced invasion of E. coli into bladder epithelial cells ([4]; 40 µg/ml, 5 minutes, triplicate, compared to the controls): 10% | reduced invasion of E. coli into bladder epithelial cells ([4]; 40 µg/ml, 15 minutes, triplicate, compared to the controls): 70% | reduced invasion of E. coli into bladder epithelial cells ([4]; 40 μg/ml, 60 minutes, separate experiments (n=4 to 7)): 90% | reduced invasion of E. coli into bladder epithelial cells ([4]; 40 µg/ml, 60 minutes, triplicate, compared to the controls): 90% | reduction in biofilm pods or IBCs in the bladders of mice ([5]; experiment 1: C3H/HeN mice, 40 μg/ml intravesical with 30 min pre-incubation, 10^8 CFU, five hours): 94% | reduction in large biofilm pods or large IBCs in the bladders of mice ([5]; experiment 2: C3H/HeN mice, 40 μg/ml in inoculum, no pre-incubation, 10^7 CFU, six hours): ~60%

C[C@@H]1CC[C@]2(C(=O)O)CC[C@]3(C)C(=CCC4[C@@]5(C)C[C@@H](O)[C@@H](O)C(C)(C)C5CC[C@]43C)C2[C@H]1C (some centres unmarked) [Pygenic acid A, Pygenic Acid A]
inhibited biofilm formation of P. aeruginosa PAO1 [1]: about 40% | inhibitory effect on the growth of P. aeruginosa PA01 [1]: no inhibitory effect

C=C1CCC2(C(=O)O)CCC3(C)C(=CCC4C5(C)CCC(O)C(C)(C)C5CCC43C)C2C1C (centres unmarked) [Pygenic acid B, Pygenic Acid B]
inhibited biofilm formation of P. aeruginosa PAO1 [1]: ~30% | inhibitory effect on the growth of P. aeruginosa PA01 [1]: no inhibitory effect

NC[C@H]1O[C@H](O[C@H]2[C@H](O)[C@@H](O[C@H]3O[C@H](CO)[C@@H](O)[C@H](N)[C@H]3O)[C@H](N)C[C@@H]2N)[C@H](N)C[C@@H]1O [Tobramycin, reference compound]
CFU, Tobramycin ([3]; tobramycin 100 μg/ml 2 h, no test compound, parallel reactor of the experiment): 5.8 loglo CFU and 6.5 loglo CFU and 6.1 loglo CFU and 6.7 loglo CFU and 6.2 loglo CFU

CO[C@H]1/C=C/O[C@@]2(C)Oc3c(C)c(O)c4c(O)c(c(/C=N/N5CCN(C)CC5)c(O)c4c3C2=O)NC(=O)/C(C)=C\C=C\[C@H](C)[C@H](O)[C@@H](C)[C@@H](O)[C@@H](C)[C@H](OC(C)=O)[C@@H]1C [rifampin]
eradication of methicillin-resistant Staphylococcus aureus in a biofilm ([6]; biofilm, urinary catheters): unable to eradicate | effect against planktonic, or suspended cells ([6]; planktonic cells): effective

Echinocystic Acid
inhibited biofilm formation of P. aeruginosa PAO1 [1]: ~25% | inhibitory effect on the growth of P. aeruginosa PA01 [1]: no inhibitory effect
